Test results taken from patent US9095138B2, “Isoxazoline insecticides” (E.I. du Pont de Nemours and Company, priority 2007, dated 2015).

Columns and labels:
Format in all cases: in vivo
[1] = test system: diamondback moth (Plutella xylostella); assay: Test A: control of diamondback moth on radish plant, foliar spray; settings: sprayed at 50 ppm; neonate larvae on radish; assessed after 6 days; replicated three times
From the text: For evaluating control of diamondback moth (Plutella xylostella) the test unit consisted of a small open container with a 12-14-day-old radish plant inside. This was pre-infested with about 50 neonate larvae that were dispensed into the test unit via corn-cob grits using a bazooka inoculator. The larvae moved onto the test plant after being dispensed into the test unit.
(§1) Test compounds were formulated using a solution containing 10% acetone, 90% water and 300 ppm X-77™ Spreader Lo-Foam Formula non-ionic surfactant containing alkylarylpolyoxyethylene, free fatty acids, glycols and isopropanol (Loveland Industries, Inc. Greeley, Colo., USA). The formulated compounds were applied in 1 mL of liquid through a SUJ2 atomizer nozzle with ⅛ JJ custom body (Spraying Systems Co. Wheaton, Ill., USA) positioned 1.27 cm (0.5 inches) above the top of each test unit. All experimental compounds in these tests were sprayed at 50 ppm, and the test was replicated three times. After spraying of the formulated test compound, each test unit was allowed to dry for 1 h and then a black, screened cap was placed on top. The test units were held for 6 days in a growth chamber at 25° C. and 70% relative humidity. Plant feeding damage was then visually assessed based on foliage consumed and a pest mortality rating was also counted and calculated for each test unit.

[2] = test system: fall armyworm (Spodoptera frugiperda); assay: Test B: control of fall armyworm on corn (maize) plant, foliar spray; settings: sprayed at 50 ppm; 1-day-old larvae on corn; replicated three times
Protocol: as §1
For evaluating control of fall armyworm (Spodoptera frugiperda) the test unit consisted of a small open container with a 4-5-day-old corn (maize) plant inside. This was pre-infested (using a core sampler) with 10-15 1-day-old larvae on a piece of insect diet. Test compounds were formulated and sprayed at 50 ppm as described for Test A and replicated three times. After spraying, the test units were maintained in a growth chamber and then the control efficacy was rated for each test unit as described for Test A.

[3] = test system: western flower thrips (Frankliniella occidentalis); assay: Test E: control of western flower thrips on Soleil bean plant, contact and/or systemic; settings: adult thrips, assessed after 6 days, replicated three times
Protocol: as §1
For evaluating control of the western flower thrips (Frankliniella occidentalis) through contact and/or systemic means, the test unit consisted of a small open container with a 5-7 day old Soleil Bean plant inside. Test compounds were formulated and sprayed as described for Test A. All experimental compounds in these tests were sprayed at 250 or 50 ppm as noted, and the test was replicated three times. After spraying, the test units were allowed to dry for 1 hour and then 22-27 adult thrips were added to each unit and then a black, screened cap was placed on top. The test units were held for 6 days at 25° C. and 45-55% relative humidity. A mortality rating was assessed along with a plant damage rating for each test unit.

Compound	control efficacy (feeding damage or mortality): very good to excellent levels [1]	control efficacy (feeding damage or mortality): very good to excellent levels [2]	control efficacy (feeding damage or mortality): very good to excellent levels ([3]; sprayed at 50 ppm)	control efficacy (feeding damage or mortality): very good to excellent levels ([3]; sprayed at 250 ppm)
O=C(NCC(Cl)CCCCl)c1ccc(C2=NOC(c3cc(Cl)cc(Cl)c3)(C(F)(F)F)C2)c2ccccc12 (mixture of isomers) [Compound 14]	20% or less feeding damage or 80% or more mortality	20% or less feeding damage or 80% or more mortality	–	–
CCC(CO)NC(=O)c1ccc(C2=NOC(c3cccc(C(F)(F)F)c3)(C(F)(F)F)C2)c2ccccc12 (mixture of isomers) [Compound 16]	20% or less feeding damage or 80% or more mortality	20% or less feeding damage or 80% or more mortality	–	–
CC(NC(=O)c1ccc(C2=NOC(c3cc(Cl)cc(C(F)(F)F)c3)(C(F)(F)F)C2)c2ccccc12)C(=O)O (mixture of isomers) [Compound 32]	20% or less feeding damage or 80% or more mortality	20% or less feeding damage or 80% or more mortality	–	–
CC(NC(=O)c1ccc(C2=NOC(c3cc(Br)cc(C(F)(F)F)c3)(C(F)(F)F)C2)c2ccccc12)C(=O)O (mixture of isomers) [Compound 38]	20% or less feeding damage or 80% or more mortality	20% or less feeding damage or 80% or more mortality	–	–
O=C(O)CNC(=O)c1ccc(C2=NOC(c3cc(C(F)(F)F)cc(C(F)(F)F)c3)(C(F)(F)F)C2)c2ccccc12 (racemic) [Compound 15]	20% or less feeding damage or 80% or more mortality	20% or less feeding damage or 80% or more mortality	–	–
O=C(NCCCSCC(F)(F)F)c1ccc(C2=NOC(c3cccc(C(F)(F)F)c3)(C(F)(F)F)C2)c2ccccc12 (racemic) [Compound 21]	20% or less feeding damage or 80% or more mortality	20% or less feeding damage or 80% or more mortality	–	–
O=C(NCCn1ccc(C(F)(F)F)n1)c1ccc(C2=NOC(c3cccc(C(F)(F)F)c3)(C(F)(F)F)C2)c2ccccc12 (centres unmarked) [Compound 17]	20% or less feeding damage or 80% or more mortality	20% or less feeding damage or 80% or more mortality	–	–
O=C(NCCn1cncn1)c1ccc(C2=NOC(c3cccc(C(F)(F)F)c3)(C(F)(F)F)C2)c2ccccc12 (centres unmarked) [Compound 18]	20% or less feeding damage or 80% or more mortality	20% or less feeding damage or 80% or more mortality	–	–
CC1(C)OCC(CNC(=O)c2ccc(C3=NOC(c4cccc(C(F)(F)F)c4)(C(F)(F)F)C3)c3ccccc23)O1 (centres unmarked) [Compound 19]	20% or less feeding damage or 80% or more mortality	20% or less feeding damage or 80% or more mortality	–	–
O=C(NCC1CCCO1)c1ccc(C2=NOC(c3cccc(C(F)(F)F)c3)(C(F)(F)F)C2)c2ccccc12 (centres unmarked) [Compound 20]	20% or less feeding damage or 80% or more mortality	20% or less feeding damage or 80% or more mortality	–	–
CCNC(=O)[C@H]1CCCN1C(=O)c1ccc(C2=NOC(c3cc(Cl)cc(Cl)c3)(C(F)(F)F)C2)c2ccccc12 (some centres unmarked) [Compound 106]	20% or less feeding damage or 80% or more mortality	–	20% or less feeding damage or 80% or more mortality	20% or less feeding damage or 80% or more mortality
